Laboratory results reported in patent US10238618B2, “Compositions and methods for diagnosis and treatment of anemia” (The United States of America as represented by the …, priority 2016, dated 2019).

Key:
Format in all cases: in vivo, bottlenose dolphin (Tursiops truncatus)
[1] = Serum fatty acid form concentrations (complex lipidomics) in dolphins fed modified diet; conditions: case dolphins fed modified diet (n = 20)
Method: (§1) Determination of serum fatty acid concentrations, including a variety of fatty acid classes, were performed by Metabolon, Inc. (Durham, N.C.) using complex lipidomics. Lipids were extracted from samples using dichloromethane and methanol in a modified Bligh-Dyer extraction in the presence of internal standards with the lower, organic, phase being used for analysis. The extracts were concentrated under nitrogen and reconstituted in 0.25 mL of dichloromethane:methanol (50:50) containing 10 mM ammonium acetate. The extracts were placed in vials for infusion-MS analyses, performed on a SelexION equipped Sciex 5500 QTRAP using both positive and negative mode electrospray. Each sample was subjected to 2 analyses, with IMS-MS conditions optimized for lipid classes monitored in each analysis. The 5500 QTRAP was operated in MRM mode to monitor the transitions for over 1,100 lipids from up to 14 lipid classes. Individual lipid species were quantified based on the ratio of signal intensity for target compounds to the signal intensity for an assigned internal standard of known concentration. Lipid class concentrations were calculated from the sum of all molecular species within a class, and fatty acid compositions were determined by calculating the proportion of individual fatty acids within each class. […]

[2] = Total serum fatty acid concentrations in dolphins fed modified diet; conditions: for concentration at 0 month / concentration at 1 month / concentration at 3 month / concentration at 6 month: bottlenose dolphin (Tursiops truncatus), Case dolphins fed modified diet (n = 20); for concentration at 0 month: Month 0 (baseline), 2 h postprandial; for concentration at 1 month: Month 1, 2 h postprandial; for concentration at 3 month: Month 3, 2 h postprandial; for concentration at 6 month: Month 6, 2 h postprandial
Method: CV % were typically under 10%.
as §1

red blood cell indices = test: Stepwise and simple linear regression: serum fatty acids as predictors of red blood cell indices; conditions: Group A dolphins on the modified diet
Method: Fatty acids that were independent predictors of red blood cell indices were then tested for linear associations with red blood cell indices using simple linear regressions.

[3] = Serum total fatty acids (% of total fatty acids), MMP dolphins versus wild Sarasota Bay dolphins
Text: Dolphins at the Navy Marine Mammal Program (MMP) are a well-studied dolphin population with regard to chronic diseases and diseases of aging, and this population is more susceptible to anemia (lower packed cell volume and lower hemoglobin) compared to wild dolphins living in Sarasota Bay, Fla. (Table 1). MMP dolphins also have lower total serum odd chain saturated fatty acids and lower very long even chain saturated fatty acids compared to Sarasota Bay dolphins (Table 1, See also Venn-Watson et al. (2016) Increased dietary intake of saturated fatty acid heptadecanoic acid (C17:0) associated with decreasing ferritin and alleviated metabolic syndrome in dolphins. […] Proposed risk factors for anemia in MMP dolphins can include advanced age, chronic disease, and diet (see Venn-Watson S, Smith C R, Gomez F, Jensen E D (2011) Physiology of aging among healthy, older bottlenose dolphins (Tursiops truncatus): comparisons with aging humans. J Comp Phys B 181:667-680). It can be hypothesized that differences in dietary fish (and differences in certain fatty acids associated with particular types of fish) can be responsible for the risk of anemia.

[4] = wild Sarasota Bay Dolphins (n = 19)

## CCCCCCCCCCCCCC(=O)O[C@H]1CC[C@@]2(C)C(=CC[C@H]3[C@@H]4CC[C@H]([C@H](C)CCCC(C)C)[C@@]4(C)CC[C@@H]32)C1 [C14:0 CE]
[1]; Month 0 (baseline)
  Serum concentrations of fatty acid forms: 126 ± 32 µM
[1]; Month 1
  Serum concentrations of fatty acid forms: 86 ± 21 µM
[1]; Month 3
  Serum concentrations of fatty acid forms: 93 ± 20 µM
[1]; Month 6
  Serum concentrations of fatty acid forms: 92 ± 25 µM

## CCCCCCCCCCCCCC(=O)O [C14:0, myristic acid]
[2]; serum, oral
  concentration at 0 month: 243 ± 63 µM
  concentration at 1 month: 195 ± 50 µM
  concentration at 3 month: 226 ± 46 µM
  concentration at 6 month: 206 ± 33 µM

## CCCCCCCCCCCCCCC(=O)O[C@H]1CC[C@@]2(C)C(=CC[C@H]3[C@@H]4CC[C@H]([C@H](C)CCCC(C)C)[C@@]4(C)CC[C@@H]32)C1 [C15:0 CE]
Red blood cell indices
  Increased serum concentration as independent, linear predictor of red blood cell indices: independently predicted improved red blood cell indices
[1]; Month 0 (baseline)
  Serum concentrations of fatty acid forms: 22 ± 5 µM
[1]; Month 1
  Serum concentrations of fatty acid forms: 61 ± 19 µM
[1]; Month 3
  Serum concentrations of fatty acid forms: 66 ± 17 µM
[1]; Month 6
  Serum concentrations of fatty acid forms: 64 ± 22 µM

## CCCCCCCCCCCCCCC(=O)O [C15:0 FFA]
[1]; Month 0 (baseline)
  Serum concentrations of fatty acid forms: 3.8 ± 1.3 µM
[1]; Month 1
  Serum concentrations of fatty acid forms: 4.2 ± 1.5 µM
[1]; Month 3
  Serum concentrations of fatty acid forms: 3.6 ± 0.8 µM
[1]; Month 6
  Serum concentrations of fatty acid forms: 3.8 ± 1.3 µM

## CCCCCCCCCCCCCCC(=O)O [C15:0, pentadecanoic acid]
[3]; MMP Dolphins (n = 30)
  Serum fatty acid (%): 0.3 ± 0.1%
[3]; [4]
  Serum fatty acid (%): 1.1 ± 0.4%
[2]; serum, oral
  concentration at 0 month: 35 ± 9 µM
  concentration at 1 month: 94 ± 33 µM
  concentration at 3 month: 111 ± 29 µM
  concentration at 6 month: 101 ± 29 µM
Red blood cell indices
  Increased serum concentration as independent, linear predictor of red blood cell indices: independently predicted higher hematocrit, higher packed cell volume, higher hemoglobin, and higher red blood cell counts

## CCCCCCCCCCCCCCCC(=O)O[C@H]1CC[C@@]2(C)C(=CC[C@H]3[C@@H]4CC[C@H]([C@H](C)CCCC(C)C)[C@@]4(C)CC[C@@H]32)C1 [C16:0 CE]
[1]; Month 0 (baseline)
  Serum concentrations of fatty acid forms: 273 ± 50 µM
[1]; Month 1
  Serum concentrations of fatty acid forms: 226 ± 41 µM
[1]; Month 3
  Serum concentrations of fatty acid forms: 244 ± 33 µM
[1]; Month 6
  Serum concentrations of fatty acid forms: 245 ± 48 µM

## CCCCCCCCCCCCCCCC(=O)O [C16:0, palmitic acid]
[2]; in vivo
  concentration at 0 month: 1440 ± 194 µM
  concentration at 1 month: 1370 ± 199 µM
  concentration at 3 month: 1500 ± 221 µM
  concentration at 6 month: 1450 ± 155 µM
  Change of total serum concentration versus Month 0: either did not change or decreased

## CCCCCCCCCCCCCCCCC(=O)O[C@H]1CC[C@@]2(C)C(=CC[C@H]3[C@@H]4CC[C@H]([C@H](C)CCCC(C)C)[C@@]4(C)CC[C@@H]32)C1 [C17:0 CE]
[1]; Month 0 (baseline)
  Serum concentrations of fatty acid forms: 14 ± 4 µM
[1]; Month 1
  Serum concentrations of fatty acid forms: 18 ± 7 µM
[1]; Month 3
  Serum concentrations of fatty acid forms: 20 ± 8 µM
[1]; Month 6
  Serum concentrations of fatty acid forms: 21 ± 9 µM

## CCCCCCCCCCCCCCCCC(=O)O [C17:0, heptadecanoic acid]
[3]; MMP Dolphins (n = 30)
  Serum fatty acid (%): 0.3 ± 0.1%
[3]; [4]
  Serum fatty acid (%): 1.3 ± 0.4%
[2]; serum, oral
  concentration at 0 month: 51 ± 9 µM
  concentration at 1 month: 82 ± 21 µM
  concentration at 3 month: 93 ± 23 µM
  concentration at 6 month: 85 ± 15 µM
Red blood cell indices
  Increased serum concentration as independent, linear predictor of red blood cell indices: independently predicted higher hematocrit, higher packed cell volume, higher hemoglobin, and higher red blood cell counts

## CCCCCCCCCCCCC/C=C/[C@@H](O)[C@H](CO)NC(=O)CCCCCCCCCCCCCCCCCCC [C20:0 CER]
[1]; Month 0 (baseline)
  Serum concentrations of fatty acid forms: 0.50 ± 0.10 µM
[1]; Month 1
  Serum concentrations of fatty acid forms: 0.39 ± 0.08 µM
[1]; Month 3
  Serum concentrations of fatty acid forms: 0.42 ± 0.08 µM
[1]; Month 6
  Serum concentrations of fatty acid forms: 0.41 ± 0.07 µM

## CCCCCCCCCCCCCCCCCCCC(=O)O [C20:0 FFA]
[1]; Month 0 (baseline)
  Serum concentrations of fatty acid forms: 6.6 ± 2.5 µM
[1]; Month 1
  Serum concentrations of fatty acid forms: 4.4 ± 1.4 µM
[1]; Month 3
  Serum concentrations of fatty acid forms: 5.0 ± 2.3 µM
[1]; Month 6
  Serum concentrations of fatty acid forms: 17 ± 10 µM

## CCCCCCCCCCCCCCCCCCCC(=O)O [C20:0]
[3]; MMP Dolphins (n = 30)
  Serum fatty acid (%): 0.9 ± 0.2%
[3]; [4]
  Serum fatty acid (%): 1.5 ± 0.3%

## CCCCCCCCCCCCC/C=C/[C@@H](O)[C@H](CO)NC(=O)CCCCCCCCCCCCCCCCCCCCC [C22:0 CER]
[1]; Month 0 (baseline)
  Serum concentrations of fatty acid forms: 0.19 ± 0.04 µM
[1]; Month 1
  Serum concentrations of fatty acid forms: 0.23 ± 0.05 µM
[1]; Month 3
  Serum concentrations of fatty acid forms: 0.26 ± 0.07 µM
[1]; Month 6
  Serum concentrations of fatty acid forms: 0.25 ± 0.06 µM

## CCCCCCCCCCCCCCCCCCCCCC(=O)O[C@H]1CC[C@@]2(C)C(=CC[C@H]3[C@@H]4CC[C@H]([C@H](C)CCCC(C)C)[C@@]4(C)CC[C@@H]32)C1 [C22:0 CE]
[1]; Month 0 (baseline)
  Serum concentrations of fatty acid forms: 8.5 ± 2.4 µM
[1]; Month 1
  Serum concentrations of fatty acid forms: 5.7 ± 1.5 µM
[1]; Month 3
  Serum concentrations of fatty acid forms: 5.9 ± 1.5 µM
[1]; Month 6
  Serum concentrations of fatty acid forms: 6.3 ± 2.1 µM

## CCCCCCCCCCCCCCCCCCCCCC(=O)O [C22:0, behenic acid]
[3]; MMP Dolphins (n = 30)
  Serum fatty acid (%): 0.2 ± 0.04%
[3]; [4]
  Serum fatty acid (%): 0.7 ± 0.2%
[2]; in vivo
  concentration at 0 month: 23 ± 4 µM
  concentration at 1 month: 21 ± 3 µM
  concentration at 3 month: 23 ± 3 µM
  concentration at 6 month: 24 ± 5 µM

## CCCCCCCCCCCCCCCCCCCCCCCC(=O)N[C@@H](CO)[C@H](O)CCCCCCCCCCCCCCC [C24:0 DCER]
[1]; Month 0 (baseline)
  Serum concentrations of fatty acid forms: 0.07 ± 0.02 µM
[1]; Month 1
  Serum concentrations of fatty acid forms: 0.11 ± 0.03 µM
[1]; Month 3
  Serum concentrations of fatty acid forms: 0.13 ± 0.05 µM
[1]; Month 6
  Serum concentrations of fatty acid forms: 0.12 ± 0.03 µM

## CCCCCCCCCCCCCCCCCCCCCCCC(=O)O [C24:0]
[3]; MMP Dolphins (n = 30)
  Serum fatty acid (%): 0.1 ± 0.0%
[3]; [4]
  Serum fatty acid (%): 0.5 ± 0.1%

## CCCCCCCCCCCCCCCCCCCCCCCCCC(=O)O [C26:0]
[2]; in vivo
  Change of total serum concentration versus Month 0: increased
